# Data from patent US20140220000A1, “MHC ENGAGEMENT AND CLIP MODULATION FOR THE TREATMENT OF DISEASE” (Scott & White Healthcare, priority 2011, published 2014).
# Columns and labels:
# CRL-5822 cells [1] = test: Viability counts of CRL-5822 cells after CpG, MKR.4 and Anti MHC Class II treatment (Example 2); assay type: cell-based; details: CpG 1 ug/mL, MKR.4 2.5 ug/mL, Anti MHC Class II 5 ug/mL, 24 hours after antibody
# Protocol: CRL-5822 were Prepared as Follows: • Removed the media from a flask of CRL-5822 using a sterile glass pipet and vacuum • Added 1.5 mL of accutase to the flask and placed in incubator for 20 minutes • Washed with 3 mL of PBS • Transferred all to a sterile 15 mL conical tube • Centrifuged for 5′ @ 1000 rpm • Removed supernatant with sterile glass pipet and vacuum • Resuspended in 3 mL of PBS • Performed a hemacytometer count indicating: 1.14*10^6 cells total of CRL-5822 cells • 1.14*10^6/8 wells+2 wells for culture maintenance=10 wells • 1.14*10^6/10 wells=[…] cells per well • Centrifuged the 3 mL of cell suspension for 5′ at 1000 rpm • Resuspended pellet in 10 mL of 10% FBS RPMI • 1 mL of this was added to 2 wells in a 12-well plate added 1 mL of fresh 10% FBS RPMI to each well to bring the total volume up to 2 mL.
# (§1) 8 wells were set up for the experiment for each cell type (CRL-5822 and C57BL/6) with no treatment, with CpG, MKR.4 peptide, with MKR.4 peptide+CpG and with or without addition of purified Anti Class-II (HLA-DR,DP,DQ) treatment in the amounts listed below.
# CRL-5822 • CpG:(x) (1 mg/mL stock)=(1 ug/mL) (2 mL)x=2 ul • MKR.4: (x) (5 mg/mL stock)=(2.5 ug/mL) (2 mL) x=1 ul • Anti MHC Class II: Treat at 5 ug/mL; Stock is at 1 mg/mL; (x) (1 mg/mL)=(5 ug/mL) (2 mL); x=10 μl/well
# (§2) CpG was administered to activate the cells and induce CLIP expression. MKR.4 was added to select wells 24 hours after cell activation. The cells were incubated with MKR.4 for 2 hours. Then fresh media with or without Anti MHC Class II was added. 24 hours after Anti MHC Class II was added to the wells viability counts were performed.
# C57BL/6 splenocytes = test: Viability counts of C57BL/6 splenocytes after CpG, MKR.4 and Anti MHC Class II treatment (Example 2); assay type: cell-based, mouse; details: CpG 5 ug/mL, MKR.4 5 ug/mL, Anti MHC Class II 5 ug/mL, 24 hours after antibody
# Protocol: C57BL/6 were Prepared as Follows: • A spleen from a C57BL/6 mouse was placed in a cell strainer in a petri dish with 6 mL of PBS • The spleen was mashed to produce a cell suspension • The PBS splenocyte cell suspension was transferred into a labeled 15 mL conical tube and centrifuged for 5 minutes at 1000 rpm • The pellet was resuspended in 1 mL of PBS • Geys was prepared to lyse the red blood cells • 7 mL of DI H20; • 0.5 mL of Geys B • 0.5 mL of Geys C • weighed out […] of NH4Cl • Mixed the […] of NH4Cl with 2 mL of Geys A • Transferred the dissolved solution to a 15 mL conical tube with the H20, Geys B, and Geys C • 3 mL of the Geys solution was added to the 1 mL of PBS cell suspension, mixed well and placed on ice for 1 minute (frequently inverted solution in tube on ice during the 1 minute) • The mixture was centrifuged for 5 minutes at 1000 rpm, washed with 5 mL of PBS, centrifuged for 5 minutes at 1000 rpm and resuspended in 10 mL of PBS • A hemacytometer count was performed: 99.0*10^6 cells total (9.9*10^6 cells/mL) plate 4*10^6 cells per well*8 wells=32 million; 32*10^6/9.9*10^6=3.23 mL of this suspension needed to obtain 32*10^6 cells • Centrifuged 3.23 mL of the suspension for 5 minutes at 1000 rpm and resuspended the pellet in 8 mL of 5% FBS RPMI • 1 mL of suspension was added to each well (12-well plate) • Added another 2 mL of 5% FBS RPMI to each well to bring the final volume up to 3 mL
# as §1
# CpG: (x) (1 mg/mL stock)=(5 ug/mL) (3 mL) x=15 ul
# MKR.4: (x) (5 mg/mL stock)=(5 ug/mL) (3 mL) x=3 ul
# Anti MHC Class II: Treat at 5 ug/mL; Stock is at 1 mg/mL; (x) (1 mg/mL)=(5 ug/mL) (3 mL); x=15 ul/well
# as §2
# H69 cells = test: Hemacytometer viability counts of H69 cells after CpG, MKR.4 and anti-class II treatment (Example 3); assay type: cell-based, human; details: 24 hours after anti-class II
# Protocol: Based on cell counts 500,000 H69 cells per well were set up in a 6 well plate-4.0*10^6/2.95*10^6=1.36 mL. The 1.36 mL was added to a new 15 mL conical tube and centrifuged for 5 minutes at 1000 rpm. The pellet was resuspended in 8 mL of H69 media and 1 mL of cell suspension was added to each well. 2 mL of H69 media was added to each well to bring the total volume/well up to 3 mL and the plates were placed in an incubator.
# (§3) CpG was administered to activate the cells and induce CLIP expression. 15 uL of 1 mg/mL CpG was added into each CpG treated well. MKR.4 was added to select wells 24 hours after cell activation. The cells were incubated with 3 uL of 5 mg/mL stock MKR.4 in DMSO for 2 hours. Then fresh media with or without Anti MHC Class II was added (5 ul/well of stock at 1 mg/mL). 24 hours after Anti MHC Class II was added to the wells viability counts were performed.
# WITT cells = test: Hemacytometer viability counts of WITT cells after CpG, MKR.4 and anti-class II treatment (Example 3); assay type: cell-based, human; details: 24 hours after anti-class II
# Protocol: 0.59*10^6 cells/mL*5 mL=[…] of WITT cells total were used. The cells were centrifuged at 1000 rpm for 5 minutes and the pellet was resuspended in 9 mL of WITT media. 1 mL of this cell suspension was added to each of […] and a culture flask. Another 2 mL of WITT media was added to each well in the 12 well plate to bring the total volume up to 3 mL. Another 9 mL was added to the T-25 culture flask to bring that total volume up to 10 mL. The plate and flask were placed in the incubator to allow adherence overnight.
# as §3
# MCF7 cells = test: Viability counts of MCF7 cells after B-estradiol treatment (Example 5); assay type: cell-based, human; details: 10 nM B-estradiol, about 19 hours after treatment
# Protocol: (§4) MCF7 (ATCC (cat# HTB-22)) and MCF7-ADR were grown in 10% FBS RPMI (Gibco RPMI 1640 media cat #21870076) supplemented with Fetal Bovine Serum, L-Glutamine, […], Hepes Buffer, Sodium Pyruvate, and Gentamicin). 1.07*10^6MCF7 cells were plated per well in 2 wells. […] ADR cells were plated per well in 2 wells. The cells were treated with B-estradiol from Sigma (Cat# E2758-250 mg, Lot#110M0138V). In order to prepare a 10 nM final concentration 27.238 mg of B-estradiol was weighed under the hood with a sterile weigh boat and spatula and dissolved in 1 mL of DMSO to make a 0.1M stock, which was then diluted twice: • 1:1000 dilution (1 ul of the 0.1M stock to 999 ul PBS) • 1:100 dilution (10 ul of the 1:000 dilution to 990 ul PBS) 20 ul of the 1:100 diluted solution was added to a final volume of 2 mL per treatment well. The MCF7 and MCF7 ADR were harvested about 19 hours after treatment. The cells were counted and viability is shown below.
# MCF7 ADR cells = test: Viability counts of MCF7 ADR cells after B-estradiol treatment (Example 5); assay type: cell-based, human; details: 10 nM B-estradiol, about 19 hours after treatment
# Protocol: as §4
# CRL-5822 cells [2] = test: Viability counts of CRL-5822 cells after LPS, MKR.4 and Anti MHC Class II treatment (Example 1); assay type: cell-based; details: LPS 1 ug/mL, MKR.4 2.5 ug/mL, Anti MHC Class II 5 ug/mL, 24 hours after antibody
# Protocol: The media was removed from a flask of CRL-5822 using a sterile glass pipet and vacuum and 1.5 mL of accutase was added to the flask and placed in incubator for 20 minutes. The cells were washed with 3 mL of PBS and transferred to a sterile 15 mL conical tube and centrifuged for 5 minutes @ 1000 rpm. The supernatant was removed with sterile glass pipet and vacuum and the pellet resuspended in 5 mL of PBS. A cell count was performed using the TC-10 automated counter and 10 ul of cell suspension+10 ul of trypan blue was loaded into disposable counting slide and put in the TC-10. The following count was made: Live: 3.54*10^4 cells/mL*5 mL=177,000 cells total & 177,000/9 wells (8 wells in experiment+1 to maintain culture)=19,666 cells/well (flask).
# The 5 mL of cell suspension was centrifuged for 5′ at 1000 rpm, the pellet was resuspended in 9 mL of 10% FBS RPMI. 1 mL of the cell suspension was added to a T-25 flask that had 4 mL of media in it and placed in the incubator. After culture 1 mL of the cell suspension was added to each well (8 wells in a labeled 24 well plate). A fresh vial of MKR.4 was resuspended in sterile DMSO. 7 mg of peptide was used to make a 5 mg/mL stock (7 mg/mL=5 mg/mL=1.4 mL of DMSO). The peptide was added into 1.4 mL of DMSO, under the hood to maintain sterility. Once all of the peptide was dissolved, 200 ul aliquots were made. […]
# B cells from C57B/6 mice = test: Cell death of B cells isolated from C57B/6 mice (Example 6, FIG. 6A); assay type: cell-based, mouse; details: C57B/6 B cells stimulated with CpG 48 hours, MKR.4 5 μg/mL 1 hour, anti-MHCII 2.5 μg/mL, 24 hours
# Protocol: (§5) B cells were isolated from the spleens 12 week old male C57B/6 or CLIP−/− (Invariant Chain deficient) mice (Jackson Labs) using the Miltenyi Biotech B cell isolation kit according to the manufacturer's directions. Cells were incubated with or without CpG-ODN (1 mg/mL SEQ ID NO 9: 5′-[…]-3′, purchased from Invivogen) for 48 hours followed by treatment with 5 μg/mL MKR.4 (5 mg/mL, SEQ ID NO 8: ANS GFR IMA VLA SGG QY). Cells were incubated with MKR.4 for 1 hour and then washed followed by treatment with 2.5 μg/mL anti-MHCII (IA/IE, BD Bioscience). 24 hours after anti-MHCII treatment cells were analyzed for cell death using Acridine Organge/propidium iodide staining measured on the Cellometer (Nexcelom), propidium iodide and foreword Vs. side scatter staining measured on a BD FACS Canto II flow cytometer (BD Bioscience). Data was analyzed using FlowJo software (TreeStar).
# [3] = test system: B cells from CLIP−/− (Invariant Chain deficient) mice; test: Cell death of B cells isolated from CLIP-/- mice (Example 6, FIG. 6B); assay type: cell-based, mouse; details: MKR.4 5 μg/mL, anti-MHCII 2.5 μg/mL, 24 hours
# Protocol: as §5
compound,measurement,setting,value
5′-tcgtcgttttgtcgttttgtcgtt-3′ [CpG],Total Dead,CRL-5822 cells [1],Total Dead: 0.07 *10^6
same,Total Live,CRL-5822 cells [1],Total Live: 0.35 * 10^6
same,Total Dead,C57BL/6 splenocytes,Total Dead: 0.08 *10^6
same,Total Live,C57BL/6 splenocytes,Total Live: 1.25 * 10^6
same,Dead,H69 cells,Dead: 0.40*10^6
same,Live,H69 cells,Live: 1.65*10^6
same,Dead,WITT cells,0.13*10^6
same,Live,WITT cells,0.94*10^6
"C[C@]12CC[C@@H]3c4ccc(O)cc4CC[C@H]3[C@@H]1CC[C@@H]2O [B-Estradiol, B-estradiol]",Dead,MCF7 cells,0.11*10^6
same,Live,MCF7 cells,0.50*10^6
same,Dead,MCF7 ADR cells,0.07*10^6
same,Live,MCF7 ADR cells,0.47*10^6
ANS GFR IMA VLA SGG QY (ANSGFRIMAVLASGGQY) [MKR.4],Total Dead,CRL-5822 cells [2],Total Dead: 0.07 *10^6
same,Total Live,CRL-5822 cells [2],Total Live: 0.32 * 10^6
same,Total Dead,CRL-5822 cells [1],Total Dead: 0.08 *10^6
same,Total Live,CRL-5822 cells [1],Total Live: 0.24 * 10^6
same,Total Dead,C57BL/6 splenocytes,Total Dead: 0.10 *10^6
same,Total Live,C57BL/6 splenocytes,Total Live: 0.44 * 10^6
same,Dead,H69 cells,Dead: 0.28*10^6
same,Live,H69 cells,Live: 1.46*10^6
same,Dead,WITT cells,0.038*10^6
same,Live,WITT cells,0.93*10^6
same,percent change in cell death,B cells from C57B/6 mice,restores the increase in cell death
same,percent change in cell death,[3],no effect on the cell death caused by the MHC class II antibody
